Series [1] is described as follows: Stability in mouse plasma (LC-MS/MS). It is filed as in vitro ADME. The note with it: for half-life at 5 μM: mouse, 37° C.
Series [2] has as its target T1, ANO2 (Homo sapiens (Human), UniProt Q9NQ90). In words: Selective inhibition of ANO1 over ANO2 (Table 1), ANO2 IC50. Type of series: cell-based.
The next series has as its target ANO1 (Homo sapiens (Human), UniProt Q5XXA6). In words: Selective inhibition of ANO1 over ANO2 (Table 1), ANO1 IC50. Type of series: cell-based.
Another series has as its system MCF7 breast cancer cells. In words: MTS cell viability, MCF7 breast cancer cells highly expressing ANO1. Particulars: MTS assay, 24 hours. Type of series: cell-based. The method, then: (§1) The cell viability was determined by the MTS assay (mean±S.E., n=4).
(§2) 24 hours later, after adding 20 μL of an MTS solution to each well and culturing at 37° C. for 30 minutes under 5% CO2, absorbance was measured at 490 nm using a microplate reader.

Series [3] has as its system PC-3 cells not expressing ANO1. In words: MTS cell viability, PC-3 cells not expressing ANO1. Type of series: cell-based. The note with it: MTS assay, 24 hours. The method, then: (§3) The cell viability was determined by the MTS assay (mean±S.E., n=4; * P<0.05, ** P<0.01, *** P<0.001).
as §2
(§4) In FIG. 2B, PC-3 cells were treated with the [Chemical Formula 5] compound at different concentrations in the same manner as in FIG. 2A. […] After adding 20 μL of an MTS solution to each well and culturing at 37° C. for 30 minutes under 5% CO2, absorbance was measured at 490 nm using a microplate reader.
A general note: Formazan colour is commonly taken as a measure of viable cells.

Series [4] deals with PC-3 cells highly expressing ANO1. In words: MTS cell viability, PC-3 cells highly expressing ANO1. Type of series: cell-based. Particulars: MTS assay, 24 hours. The method, then:
as §3, §2, §4

The test system of series [5] is BxPC3 pancreatic cancer cells. In words: MTS cell viability, BxPC3 pancreatic cancer cells highly expressing ANO1. The note with it: MTS assay, 24 hours. Type of series: cell-based. The procedure:
as §1, §2

In a further series the target is ANO1 (TMEM16A) (Homo sapiens (Human), UniProt Q5XXA6). In words: Short-circuit current (apical membrane current) in FRT cells expressing ANO1. It is filed as cell-based. The method, then:
Specifically, Fischer rat thyroid (FRT) cells expressing ANO1 were differentiated by culturing in DMEM/Ham's F12 medium in Transwell for 5 days and then short-circuit current was measured using an Ussing chamber. Then, a regular HCO^3− solution (120 mM NaCl, 5 mM KCl, 1 mM MgCl2, 2.5 mM HEPES, 1 mM CaCl2, 10 mM glucose, 25 mM NaHCO3) was added to a basolateral bath of the Ussing chamber, and a luminal bath was stabilized for 20 minutes by creating a Cl^− gradient by maintaining at 70 mM Cl^−. Then, after treating with the [Chemical Formula 5] compound at different concentrations (0, 0.003, 0.01, 0.03, 0.1, 0.3, 1.0 μM) and carrying out reaction for 20 minutes, ATP (100 μM) was added and the inhibitory effect for Cl^− secretion was measured through ANO1 activity.

For series [6], the system named is smooth muscle of the mouse ileum. In words: Contraction of smooth muscle using mouse ileal section.
In series [7] the test system is ANO1 protein in PC-3 cells. In words: Western blot of ANO1 protein level in PC-3 cells expressing ANO1 at high level. It is filed as cell-based. The note with it: for decrease of the expression level of ANO1: PC-3 cells. In general terms: In western blotting, separated proteins are transferred to a membrane and probed.
For series [8], the target named is T1, ANO2. In words: Short-circuit current in FRT cells expressing ANO2. It is filed as cell-based.
In another series the target is human WT-CFTR (Homo sapiens (Human), UniProt P13569). In words: Short-circuit current in FRT cells expressing CFTR. It is filed as cell-based.
Chain of human WT-CFTR (P13569 whole entry): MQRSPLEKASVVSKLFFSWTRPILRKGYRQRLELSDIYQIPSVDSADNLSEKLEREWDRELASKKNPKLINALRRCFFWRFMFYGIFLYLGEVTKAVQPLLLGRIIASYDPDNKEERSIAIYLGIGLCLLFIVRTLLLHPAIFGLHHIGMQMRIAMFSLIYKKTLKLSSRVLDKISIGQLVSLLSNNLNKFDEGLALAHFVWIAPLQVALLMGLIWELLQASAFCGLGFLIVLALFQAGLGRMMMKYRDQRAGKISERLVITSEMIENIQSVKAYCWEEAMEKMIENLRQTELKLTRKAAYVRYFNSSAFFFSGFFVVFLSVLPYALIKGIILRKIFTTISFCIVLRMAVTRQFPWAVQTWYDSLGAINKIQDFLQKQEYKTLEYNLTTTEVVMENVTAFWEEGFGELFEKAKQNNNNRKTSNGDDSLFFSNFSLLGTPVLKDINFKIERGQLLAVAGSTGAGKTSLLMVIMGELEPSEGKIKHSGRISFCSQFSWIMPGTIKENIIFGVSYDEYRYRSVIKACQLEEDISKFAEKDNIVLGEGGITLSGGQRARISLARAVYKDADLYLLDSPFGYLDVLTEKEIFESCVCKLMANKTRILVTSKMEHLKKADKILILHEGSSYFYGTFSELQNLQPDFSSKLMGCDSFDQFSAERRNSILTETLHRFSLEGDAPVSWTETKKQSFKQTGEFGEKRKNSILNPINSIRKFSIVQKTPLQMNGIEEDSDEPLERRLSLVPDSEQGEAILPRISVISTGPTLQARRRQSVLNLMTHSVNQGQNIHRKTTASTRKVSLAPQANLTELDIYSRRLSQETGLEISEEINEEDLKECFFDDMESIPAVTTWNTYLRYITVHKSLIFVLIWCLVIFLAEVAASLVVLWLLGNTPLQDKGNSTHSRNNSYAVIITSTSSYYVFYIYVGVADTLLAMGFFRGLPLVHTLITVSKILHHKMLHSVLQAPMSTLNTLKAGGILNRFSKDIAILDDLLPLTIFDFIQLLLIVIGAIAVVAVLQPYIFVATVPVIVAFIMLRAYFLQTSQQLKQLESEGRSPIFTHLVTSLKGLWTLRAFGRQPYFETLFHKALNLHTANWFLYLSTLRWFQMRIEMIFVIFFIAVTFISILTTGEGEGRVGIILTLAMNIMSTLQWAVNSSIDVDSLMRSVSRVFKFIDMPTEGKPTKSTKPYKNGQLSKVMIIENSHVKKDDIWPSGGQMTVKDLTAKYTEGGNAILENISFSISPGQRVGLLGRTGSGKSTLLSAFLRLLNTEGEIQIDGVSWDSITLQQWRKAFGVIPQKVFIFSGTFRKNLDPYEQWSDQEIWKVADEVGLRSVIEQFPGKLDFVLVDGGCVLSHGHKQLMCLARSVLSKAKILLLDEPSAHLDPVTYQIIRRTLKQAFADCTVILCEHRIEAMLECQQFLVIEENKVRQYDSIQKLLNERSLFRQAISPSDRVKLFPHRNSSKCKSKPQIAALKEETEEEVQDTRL

Some results are limits rather than exact numbers.

The values below come from patent publication US11274074B2, “Pharmaceutical composition for ANO1 antagonist with anticancer activity” (INDUSTRY-ACADEMIC COOPERATION FOUNDATION, YONSEI UNIVERSITY, priority 2018, dated 2022).

What is called half-life is the time in which the quantity being followed falls by half. Low values mean rapid decline, high ones slow decline. As usually defined, the IC50 is the concentration that gives 50% inhibition. A higher IC50 goes with weaker potency in that assay. The inhibition is the relative decrease from the control value, in per cent. Low readings indicate little suppression, high ones strong suppression.

T1 sequence (Q9NQ90 other isoform, or with tags, fused parts or gaps, species assumed): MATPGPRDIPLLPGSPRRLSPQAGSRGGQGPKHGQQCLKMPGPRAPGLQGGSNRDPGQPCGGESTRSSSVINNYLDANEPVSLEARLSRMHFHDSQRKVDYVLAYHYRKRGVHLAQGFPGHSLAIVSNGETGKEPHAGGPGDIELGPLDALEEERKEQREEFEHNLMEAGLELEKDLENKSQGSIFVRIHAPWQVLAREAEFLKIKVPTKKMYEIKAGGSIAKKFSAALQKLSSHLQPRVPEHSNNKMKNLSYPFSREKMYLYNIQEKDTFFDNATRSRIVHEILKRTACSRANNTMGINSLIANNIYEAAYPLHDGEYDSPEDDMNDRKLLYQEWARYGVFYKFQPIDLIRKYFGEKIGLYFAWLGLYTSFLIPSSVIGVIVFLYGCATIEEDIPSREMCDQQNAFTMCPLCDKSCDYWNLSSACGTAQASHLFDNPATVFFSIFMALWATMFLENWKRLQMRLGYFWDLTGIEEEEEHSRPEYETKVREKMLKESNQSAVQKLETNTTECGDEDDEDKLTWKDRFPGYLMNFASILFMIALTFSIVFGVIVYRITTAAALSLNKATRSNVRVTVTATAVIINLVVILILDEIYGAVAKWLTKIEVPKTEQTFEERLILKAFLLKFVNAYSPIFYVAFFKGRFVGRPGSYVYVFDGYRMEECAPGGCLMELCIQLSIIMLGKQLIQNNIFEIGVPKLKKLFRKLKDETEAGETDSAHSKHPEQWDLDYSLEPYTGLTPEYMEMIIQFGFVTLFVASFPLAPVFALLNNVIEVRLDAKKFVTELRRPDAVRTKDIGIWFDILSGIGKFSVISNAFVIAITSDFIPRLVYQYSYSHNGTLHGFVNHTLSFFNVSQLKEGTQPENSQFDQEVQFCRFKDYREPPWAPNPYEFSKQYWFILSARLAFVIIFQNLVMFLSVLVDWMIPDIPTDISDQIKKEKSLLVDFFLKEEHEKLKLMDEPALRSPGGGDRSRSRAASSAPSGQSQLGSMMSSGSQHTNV
Chain of ANO1 (Q5XXA6 whole entry, species assumed): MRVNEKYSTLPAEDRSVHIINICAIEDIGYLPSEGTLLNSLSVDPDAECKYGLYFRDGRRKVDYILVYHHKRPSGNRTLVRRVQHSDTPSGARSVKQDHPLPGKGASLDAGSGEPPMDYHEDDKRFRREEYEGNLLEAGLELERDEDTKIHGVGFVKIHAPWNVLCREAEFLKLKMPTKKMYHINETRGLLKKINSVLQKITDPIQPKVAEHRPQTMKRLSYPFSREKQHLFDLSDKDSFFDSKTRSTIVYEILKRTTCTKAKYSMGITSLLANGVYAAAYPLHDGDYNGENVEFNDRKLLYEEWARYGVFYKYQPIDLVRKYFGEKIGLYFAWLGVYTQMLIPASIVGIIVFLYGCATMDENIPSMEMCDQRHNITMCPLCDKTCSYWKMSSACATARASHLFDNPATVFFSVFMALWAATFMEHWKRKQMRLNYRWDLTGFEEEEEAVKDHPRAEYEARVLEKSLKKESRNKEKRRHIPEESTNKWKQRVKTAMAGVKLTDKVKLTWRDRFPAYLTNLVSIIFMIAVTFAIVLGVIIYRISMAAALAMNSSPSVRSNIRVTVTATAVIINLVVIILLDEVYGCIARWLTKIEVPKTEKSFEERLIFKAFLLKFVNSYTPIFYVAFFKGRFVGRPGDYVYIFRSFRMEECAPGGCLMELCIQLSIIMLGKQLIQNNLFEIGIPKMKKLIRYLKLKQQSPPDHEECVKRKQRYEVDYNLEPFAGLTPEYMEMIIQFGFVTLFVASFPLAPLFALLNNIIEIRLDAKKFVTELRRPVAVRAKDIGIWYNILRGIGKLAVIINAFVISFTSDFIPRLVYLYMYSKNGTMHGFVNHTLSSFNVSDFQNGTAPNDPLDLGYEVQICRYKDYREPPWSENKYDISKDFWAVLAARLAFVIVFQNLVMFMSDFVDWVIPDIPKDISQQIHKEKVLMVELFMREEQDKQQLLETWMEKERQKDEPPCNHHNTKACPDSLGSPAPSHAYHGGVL
Chain of ANO1 (TMEM16A) (Q5XXA6 whole entry, species assumed): as above

As for `COc1ccccc1/C=N/NC(=O)COc1ccc(Cl)cc1C` [Ani9, reference compound], in series [1], the plasma stability entry is “low” and the half-life at 5 μM was 0.533 h.
`COc1ccccc1/C=N/NC(=O)c1cc2cc(Cl)ccc2o1` [Comparative Example 1]: the IC50 against ANO2 [2] and on ANO1 was above 100 µM throughout.
Take `COc1ccccc1-c1nnc(-c2cc3cc(Cl)ccc3o2)o1` [Comparative Example 2]: the IC50 against ANO2 [2] and on ANO1 was above 100 µM each time.
With `COc1cccc(/C=N/NC(=O)COc2ccc(Cl)cc2C)c1` [Comparative Example 3], at ANO1, the IC50 is above 100 µM.
As for `COc1cccc(-c2nnc(COc3ccc(Cl)cc3C)o2)c1` [Comparative Example 4], the IC50 at ANO2 [2] and at ANO1 was above 100 µM throughout.
`Cc1cc(Cl)ccc1OCC(=O)N/N=C/c1cccc(F)c1` [Comparative Example 5] returned an IC50 on ANO1 above 100 µM.
In the case of `Cc1cc(Cl)ccc1OCc1nnc(-c2cccc(F)c2)o1` [Comparative Example 6], the IC50 against ANO2 [2] and against ANO1 was above 100 µM in each case.
As for `Cc1cc(Cl)ccc1OCc1nnc(-c2ccccc2C(F)(F)F)o1` [Comparative Example 7], the IC50 on ANO2 [2] and at ANO1 was above 100 µM in each case.
`Cc1cc(Cl)ccc1OCc1nnc(-c2ccccc2OC(F)(F)F)o1` [Comparative Example 8] came in with an IC50 against ANO1 above 100 µM.
For `Cc1cc(Cl)ccc1OCC(=O)N/N=C/c1cccc(OC(F)(F)F)c1` [Comparative Example 9], the “effect on cell viability of MCF7 breast cancer cells highly expressing ANO1” value in the series on MCF7 breast cancer cells is reported as “insignificant effect”. Moreover, the “effect on cell viability of PC3 cells not expressing ANO1” value in series [3] is recorded as “insignificant effect”. In addition, the “effect on cell viability of PC-3 cells highly expressing ANO1” value in [4] was “insignificant effect”. Besides, at ANO1, the “ANO1 inhibitory activity (in words)” value is “not to inhibit ANO1” and the IC50 was above 100 µM. In addition, the “effect on cell viability of BxPC3 pancreatic cancer cells highly expressing ANO1” value in series [5] is “insignificant effect”.
With `Cc1cc(Cl)ccc1OCc1nnc(-c2cccc(OC(F)(F)F)c2)o1` [Comparative Example 10], at ANO1, the IC50 was above 100 µM.
For `Cc1cc(Cl)ccc1OCc1nnc(-c2ccccn2)o1` [Comparative Example 11], the IC50 against ANO1 was above 100 µM.
With `CCOC(=O)c1cc2ccccn2c1/C=N/NC(=O)COc1ccc(Cl)cc1C` [Comparative Example 12], the IC50 on ANO2 [2] and against ANO1 was above 100 µM throughout.
On ANO1, `Cc1cc(Cl)ccc1OCC(=O)N/N=C1/C(=O)N(C)c2ccccc21` [Comparative Example 13] registered an IC50 above 100 µM.
Turning to `Cc1cc(Cl)ccc1OCC(=O)N/N=C1\CCOc2ccccc21` [Comparative Example 14], the IC50 on ANO1 was above 100 µM.
Regarding `Cc1cc(Cl)ccc1OCC(=O)Nc1nc2ccccc2s1` [Comparative Example 15], the IC50 at ANO2 [2] and against ANO1 was above 100 µM in each case.
For the molecule `COC(=O)c1sc(NC(=O)COc2ccc(Cl)cc2C)nc1C` [Comparative Example 16], the IC50 against ANO1 is above 100 µM.
`Cc1cc(Cl)ccc1OC(C)C(=O)N/N=C/c1ccccc1OC(F)(F)F` (stereo not shown) [Comparative Example 17] yielded a half-maximal inhibitory concentration (IC50) against ANO1 above 100 µM.
As for `Cc1cc(Cl)ccc1OC(C)(C)C(=O)N/N=C/c1ccccc1OC(F)(F)F` [Comparative Example 18], the IC50 at ANO2 [2] is above 100 µM.
For the molecule `Cc1cc(Cl)ccc1OC(F)(F)C(=O)N/N=C/c1ccccc1OC(F)(F)F` [Comparative Example 19], the IC50 on ANO2 [2] and against ANO1 was above 100 µM each time.
For `Cc1cc(Cl)ccc1OCC(=O)N/N=C/c1ccccc1OC(F)(F)F` [Example 1], the “inhibition of ANO1 activity as compared to Ani9” value against ANO1 (TMEM16A) was at least 4 times. Also, the IC50 on ANO1 (TMEM16A) (FRT cells expressing ANO1, short-circuit current, ATP 100 μM) is 0.022 µM. In the series with MCF7 breast cancer cells, the “effect on cell viability of MCF7 breast cancer cells highly expressing ANO1” value is “selectively inhibited the growth”. Besides, in series [6], the “contraction frequency of smooth muscle” value was “no effect” and the “contraction of smooth muscle of the mouse ileum” value is recorded as “strongly inhibited”. Besides, in series [6] (300 nM), the “decrease of maximum contraction intensity of smooth muscle” value stood at 53.3%. The “decrease of maximum contraction intensity of smooth muscle” value in [6] (1 μM) worked out at 68.8%. For the same molecule, the “effect on cell viability of PC-3 cells highly expressing ANO1” value in [4] is recorded as “selectively inhibited the growth of the PC-3 cells highly expressing ANO1 in a concentration-dependent manner”. In series [7] (3 μM), the “reduction of ANO1 expression level as compared to Ani9” value (shortened to “reduction of ANO1 expression level”) is listed as “about 11.5 times” and the “decrease of the expression level of ANO1” value is listed as 59.8±4.6%. Also, in [7] (10 μM), the “reduction of ANO1 expression level” value was around 2.28 times and the “decrease of the expression level of ANO1” value worked out at 66.5±4.7%. In addition, on ANO1, the “ANO1 inhibitory activity (in words)” value is “strongest ANO1 inhibitory activity” and 0.021 ± 0.005 µM corresponded to half-maximal inhibition (IC50). At ANO2 [8], this molecule yielded an inhibition at 100 µM of 17.1%. In series [1], the plasma stability entry was “higher stability in the mouse plasma than Ani9” and the half-life at 5 μM stood at 1.73 h. Moreover, the “effect on cell viability of BxPC3 pancreatic cancer cells highly expressing ANO1” value in series [5] was “selectively inhibited the growth”. Moreover, the “inhibition of the activity of CFTR” value at human WT-CFTR (100 μM, forskolin-activated CFTR) is “did not inhibit”.
`COc1ccccc1CNNC(=O)COc1ccc(Cl)cc1C` [Example 2]: the IC50 against ANO2 [2] is above 100 µM; at ANO1 it was 10.7 ± 0.14 µM.
In the case of `COc1ccccc1-c1nnc(COc2ccc(Cl)cc2C)o1` [Example 3], the IC50 against ANO2 [2] is 12.4 ± 0.05 µM; against ANO1, 19.4 ± 0.01 µM.
The corresponding values for `Cc1cc(Cl)ccc1OCc1nnc(-c2ccccc2F)o1` [Example 4] are above 100 µM and 21.2 ± 0.17 µM.
The molecule `Cc1cc(Cl)ccc1OCC(=O)N/N=C/c1ccccc1C(F)(F)F` [Example 5] yielded an IC50 against ANO1 of 0.21 ± 0.04 µM.
Take `C/C(=N\NC(=O)COc1ccc(Cl)cc1C)c1ccccc1OC(F)(F)F` [Example 6]: on ANO2 [2], the IC50 was above 100 µM. In series [7] (10 μM), the “reduction of ANO1 expression level” value is “about 1.21 times” and the “decrease of the expression level of ANO1” value worked out at 28.9±0.9%. Also, at ANO1, the “ANO1 inhibitory activity (in words)” value is on record as “slightly weaker inhibitory activity than the compound of Example 1” and half-maximal inhibition (IC50) required 0.3 ± 0.02 µM.
As for `CCOC(=O)C(F)Oc1ccccc1/C=N/NC(=O)COc1ccc(Cl)cc1C` (stereo not shown) [Example 7], the IC50 against ANO2 [2] came out at 59.4 ± 0.45 µM; on ANO1, 15.7 ± 0.01 µM.
In the case of `Cc1cc(Cl)ccc1OCC(=O)N/N=C/c1ccco1` [Example 8], the IC50 against ANO1 was determined as 25.7 ± 0.01 µM.
`Cc1cc(Cl)ccc1OCc1nnc(-c2ccco2)o1` [Example 9]: the IC50 was above 100 µM on ANO2 [2] and 63.8 ± 0.02 µM on ANO1.
The corresponding values for `Cc1cc(Cl)ccc1OCC(=O)N/N=C/c1ccccn1` [Example 10] are above 100 µM and 31.3 ± 0.57 µM.
In the case of `COc1ccccc1CNC(=O)COc1ccc(Cl)cc1C` [Example 11], the IC50 against ANO2 [2] stood at 13.1 ± 0.07 µM; on ANO1, 20.6 ± 0.02 µM.
Take `COc1cccc(CNC(=O)COc2ccc(Cl)cc2C)c1` [Example 12]: the IC50 on ANO2 [2] is above 100 µM; against ANO1, 53.7 ± 0.05 µM.
For the molecule `Cc1cc(Cl)ccc1OCC(=O)Nc1nc2cc(Cl)ccc2o1` [Example 13], in series [7] (10 μM), the “reduction of ANO1 expression level” value is reported as around 2.05 times and the “decrease of the expression level of ANO1” value was determined as 48.8±2.9%. In addition, half-maximal inhibition at ANO1 (IC50) required 14.2 ± 0.07 µM.
Consider `CCOC(=O)c1csc(NC(=O)COc2ccc(Cl)cc2C)n1` [Example 14], for which the IC50 against ANO2 [2] was above 100 µM; at ANO1, 14.8 ± 0.01 µM.
On to CFTRinh-172 [reference compound], for which the “inhibition of CFTR” value against human WT-CFTR (10 μM) was “completely inhibited”.
